Assay results: ChEMBL document CHEMBL3425471, “Design, synthesis and biological evaluation of novel pyrazoline-containing derivatives as potential tubulin assembling inhibitors” (Eur J Med Chem, 2015)
Blank lines part the entries; values can stand above or below the compound they belong to.

Columns and labels:
Tubulin = Tubulin (Bos taurus, UniProt Q6B856+Q862L2+Q862F3); assay: Inhibition of bovine brain tubulin polymerization after 20 mins by turbidimetric analysis
A549 = assay: cells; conditions: Homo sapiens, A549, 24 h
Description: Antiproliferative activity against human A549 cells assessed as reduction in cell viability after 24 hrs by MTT assay

MCF7 = assay: cells; conditions: Homo sapiens, MCF7, 24 h
Description: Antiproliferative activity against human MCF7 cells assessed as reduction in cell viability after 24 hrs by MTT assay

HepG2 [1] = assay: cells; conditions: Homo sapiens, HepG2, 24 h
Description: Antiproliferative activity against human HepG2 cells assessed as reduction in cell viability after 24 hrs by MTT assay

HepG2 [2] = assay: Induction of apoptosis in human HepG2 cells assessed as viable cells at 0.01 uM after 24 hrs by AnnexinV-FITC/PI staining based flow cytometry (reference value: 93.0%); type: functional; conditions: HepG2, 24 h, read-out: Activity
HepG2 [3] = assay: Induction of apoptosis in human HepG2 cells assessed as early apoptotic cells at 0.01 uM after 24 hrs by AnnexinV-FITC/PI staining based flow cytometry (reference value: 3.89%); type: functional
HepG2 [4] = assay: Induction of apoptosis in human HepG2 cells assessed as late apoptotic cells at 0.01 uM after 24 hrs by AnnexinV-FITC/PI staining based flow cytometry (reference value: 1.49%); type: functional
HepG2 [5] = assay: Induction of apoptosis in human HepG2 cells assessed as necrotic cells at 0.01 uM after 24 hrs by AnnexinV-FITC/PI staining based flow cytometry (reference value: 1.63%); type: functional
HepG2 [6] = assay: Induction of apoptosis in human HepG2 cells assessed as viable cells at 0.03 uM after 24 hrs by AnnexinV-FITC/PI staining based flow cytometry (reference value: 93.0%); type: functional; conditions: HepG2, 24 h, read-out: Activity
HepG2 [7] = assay: Induction of apoptosis in human HepG2 cells assessed as early apoptotic cells at 0.03 uM after 24 hrs by AnnexinV-FITC/PI staining based flow cytometry (reference value: 3.89%); type: functional
HepG2 [8] = assay: Induction of apoptosis in human HepG2 cells assessed as late apoptotic cells at 0.03 uM after 24 hrs by AnnexinV-FITC/PI staining based flow cytometry (reference value: 1.49%); type: functional
HepG2 [9] = assay: Induction of apoptosis in human HepG2 cells assessed as necrotic cells at 0.03 uM after 24 hrs by AnnexinV-FITC/PI staining based flow cytometry (reference value: 1.63%); type: functional
HepG2 [10] = assay: Induction of apoptosis in human HepG2 cells assessed as viable cells at 0.05 uM after 24 hrs by AnnexinV-FITC/PI staining based flow cytometry (reference value: 93.0%); type: functional; conditions: HepG2, 24 h, read-out: Activity
HepG2 [11] = assay: Induction of apoptosis in human HepG2 cells assessed as early apoptotic cells at 0.05 uM after 24 hrs by AnnexinV-FITC/PI staining based flow cytometry (reference value: 3.89%); type: functional
HepG2 [12] = assay: Induction of apoptosis in human HepG2 cells assessed as late apoptotic cells at 0.05 uM after 24 hrs by AnnexinV-FITC/PI staining based flow cytometry (reference value: 1.49%); type: functional
HepG2 [13] = assay: Induction of apoptosis in human HepG2 cells assessed as necrotic cells at 0.05 uM after 24 hrs by AnnexinV-FITC/PI staining based flow cytometry (reference value: 1.63%); type: functional
HepG2 [14] = assay: Cell cycle arrest in human HepG2 cells assessed as accumulation of cells at G1 phase of cell cycle at 0.01 uM after 48 hrs by propidium iodide staining based flow cytometry (reference value: 75.2%); type: functional
HepG2 [15] = assay: Cell cycle arrest in human HepG2 cells assessed as accumulation of cells at G2 phase of cell cycle at 0.01 uM after 48 hrs by propidium iodide staining based flow cytometry (reference value: 5.09%); type: functional
HepG2 [16] = assay: Cell cycle arrest in human HepG2 cells assessed as accumulation of cells at S phase of cell cycle at 0.01 uM after 48 hrs by propidium iodide staining based flow cytometry (reference value: 19.71%); type: functional
HepG2 [17] = assay: Cell cycle arrest in human HepG2 cells assessed as accumulation of cells at G1 phase of cell cycle at 0.03 uM after 48 hrs by propidium iodide staining based flow cytometry (reference value: 75.2%); type: functional
HepG2 [18] = assay: Cell cycle arrest in human HepG2 cells assessed as accumulation of cells at G2 phase of cell cycle at 0.03 uM after 48 hrs by propidium iodide staining based flow cytometry (reference value: 5.09%); type: functional
HepG2 [19] = assay: Cell cycle arrest in human HepG2 cells assessed as accumulation of cells at S phase of cell cycle at 0.03 uM after 48 hrs by propidium iodide staining based flow cytometry (reference value: 19.71%); type: functional
HepG2 [20] = assay: Cell cycle arrest in human HepG2 cells assessed as accumulation of cells at G1 phase of cell cycle at 0.05 uM after 48 hrs by propidium iodide staining based flow cytometry (reference value: 75.2%); type: functional
HepG2 [21] = assay: Cell cycle arrest in human HepG2 cells assessed as accumulation of cells at G2 phase of cell cycle at 0.05 uM after 48 hrs by propidium iodide staining based flow cytometry (reference value: 5.09%); type: functional
HepG2 [22] = assay: Cell cycle arrest in human HepG2 cells assessed as accumulation of cells at S phase of cell cycle at 0.05 uM after 48 hrs by propidium iodide staining based flow cytometry (reference value: 19.71%); type: functional

IC50 (Tubulin): 2.19 µM
IC50 (A549): 90 nM
IC50 (MCF7): 0.17 µM
IC50 (HepG2 [1]): 70 nM
SMILES: CCOc1ccc(C2=NN(C(=O)c3cc(OC)c(OC)c(OC)c3)C(c3ccc4c(c3)OCO4)C2)cc1 (centres undefined)

IC50 (Tubulin): 34.77 µM
IC50 (A549): 6170 nM
IC50 (MCF7): 8.22 µM
IC50 (HepG2 [1]): 6250 nM
SMILES: COc1ccc(C2=NN(C(=O)c3cccc(OC)c3)C(c3ccc4c(c3)OCO4)C2)cc1 (centres undefined)

IC50 (Tubulin): 2.35 µM
IC50 (A549): 110 nM
IC50 (MCF7): 0.21 µM
IC50 (HepG2 [1]): 120 nM
SMILES: COc1ccccc1C1=NN(C(=O)c2cc(OC)c(OC)c(OC)c2)C(c2ccc3c(c2)OCO3)C1 (centres undefined)

IC50 (Tubulin): 1.91 µM
IC50 (A549): 90 nM
IC50 (MCF7): 0.06 µM
IC50 (HepG2 [1]): 70 nM
SMILES: COc1cccc(C2=NN(C(=O)c3cc(OC)c(OC)c(OC)c3)C(c3ccc4c(c3)OCO4)C2)c1 (centres undefined)

IC50 (Tubulin): 1.88 µM
IC50 (A549): 70 nM
IC50 (MCF7): 0.05 µM
IC50 (HepG2 [1]): 30 nM
SMILES: COc1ccc(C2=NN(C(=O)c3cc(OC)c(OC)c(OC)c3)C(c3ccc4c(c3)OCO4)C2)cc1 (centres undefined)
viability at 0.01 µM (HepG2 [2]): 91.2%
Activity (HepG2 [3]): 5.12%
Activity (HepG2 [4]): 1.92%
Activity (HepG2 [5]): 1.75%
viability at 0.03 µM (HepG2 [6]): 85%
Activity (HepG2 [7]): 8.72%
Activity (HepG2 [8]): 2.52%
Activity (HepG2 [9]): 3.76%
viability at 0.05 µM (HepG2 [10]): 76.4%
Activity (HepG2 [11]): 13.4%
Activity (HepG2 [12]): 5.34%
Activity (HepG2 [13]): 4.86%
Activity (HepG2 [14]): 68.96%
Activity (HepG2 [15]): 5.99%
Activity (HepG2 [16]): 25.06%
Activity (HepG2 [17]): 35.62%
Activity (HepG2 [18]): 50.11%
Activity (HepG2 [19]): 14.28%
Activity (HepG2 [20]): 34.65%
Activity (HepG2 [21]): 52.2%
Activity (HepG2 [22]): 13.14%

IC50 (Tubulin): 2.13 µM
IC50 (A549): 80 nM
IC50 (MCF7): 0.07 µM
IC50 (HepG2 [1]): 60 nM
SMILES: COc1ccc(C2=NN(C(=O)c3cc(OC)c(OC)c(OC)c3)C(c3ccc4c(c3)OCO4)C2)cc1OC (centres undefined)

IC50 (Tubulin): 11.37 µM
IC50 (A549): 2230 nM
IC50 (MCF7): 3.26 µM
IC50 (HepG2 [1]): 3150 nM
SMILES: COc1cc(C(=O)N2N=C(c3cc(OC)c(OC)c(OC)c3)CC2c2ccc3c(c2)OCO3)cc(OC)c1OC (centres undefined)

IC50 (Tubulin): 19.45 µM
IC50 (A549): 4210 nM
IC50 (MCF7): 6.37 µM
IC50 (HepG2 [1]): 5250 nM
SMILES: COc1cc(C(=O)N2N=C(c3ccc(Br)cc3)CC2c2ccc3c(c2)OCO3)cc(OC)c1OC (centres undefined)

IC50 (Tubulin): 18.02 µM
IC50 (A549): 3080 nM
IC50 (MCF7): 4.26 µM
IC50 (HepG2 [1]): 3160 nM
SMILES: COc1cc(C(=O)N2N=C(c3ccc(Cl)cc3)CC2c2ccc3c(c2)OCO3)cc(OC)c1OC (centres undefined)

IC50 (Tubulin): 7.89 µM
IC50 (A549): 760 nM
IC50 (MCF7): 0.32 µM
IC50 (HepG2 [1]): 250 nM
SMILES: COc1cc(C(=O)N2N=C(c3ccc(F)cc3)CC2c2ccc3c(c2)OCO3)cc(OC)c1OC (centres undefined)

IC50 (Tubulin): > 40 µM
IC50 (A549): 7110 nM
IC50 (MCF7): 9.23 µM
IC50 (HepG2 [1]): 7150 nM
SMILES: COc1cc(C(=O)N2N=C(c3cccc(Cl)c3)CC2c2ccc3c(c2)OCO3)cc(OC)c1OC (centres undefined)

IC50 (Tubulin): 10.11 µM
IC50 (A549): 1140 nM
IC50 (MCF7): 2.35 µM
IC50 (HepG2 [1]): 2910 nM
SMILES: COc1cc(C(=O)N2N=C(c3ccc(C)cc3)CC2c2ccc3c(c2)OCO3)cc(OC)c1OC (centres undefined)

IC50 (Tubulin): 7.08 µM
IC50 (A549): 5080 nM
IC50 (MCF7): 7.34 µM
IC50 (HepG2 [1]): 5170 nM
SMILES: COc1cc(C(=O)N2N=C(c3cccc(C)c3)CC2c2ccc3c(c2)OCO3)cc(OC)c1OC (centres undefined)

IC50 (Tubulin): 15.63 µM
IC50 (A549): 2190 nM
IC50 (MCF7): 3.38 µM
IC50 (HepG2 [1]): 2240 nM
SMILES: COc1cc(C(=O)N2N=C(c3ccccc3)CC2c2ccc3c(c2)OCO3)cc(OC)c1OC (centres undefined)

IC50 (Tubulin): > 40 µM
IC50 (A549): > 10000 nM
IC50 (MCF7): > 10 µM
IC50 (HepG2 [1]): > 10000 nM
SMILES: CCOc1ccc(C2=NN(C(=O)c3ccc(Br)cc3)C(c3ccc4c(c3)OCO4)C2)cc1 (centres undefined)

IC50 (Tubulin): > 40 µM
IC50 (A549): > 10000 nM
IC50 (MCF7): > 10 µM
IC50 (HepG2 [1]): > 10000 nM
SMILES: COc1ccccc1C1=NN(C(=O)c2ccc(Br)cc2)C(c2ccc3c(c2)OCO3)C1 (centres undefined)

IC50 (Tubulin): > 40 µM
IC50 (A549): > 10000 nM
IC50 (MCF7): > 10 µM
IC50 (HepG2 [1]): > 10000 nM
SMILES: COc1cccc(C2=NN(C(=O)c3ccc(Br)cc3)C(c3ccc4c(c3)OCO4)C2)c1 (centres undefined)
